US20250268928A1, “USE OF BACTERIORUBERINS AND GLYCOSYL DERIVATIVES THEREOF TO PREVENT AND TREAT DISEASES INVOLVING DYSREGULATED PROTEIN AGGREGATION, SUCH AS NEURODEGENERATIVE DISEASES” (NAOS INSTITUTE OF LIFE SCIENCE, priority 2020, published 2025)

B1: BDNF: neurotrophin used as a positive control (protein, UniProt P23560 19-247, looked up)
Neurotrophic factor BDNF …: APMKEANIRGQGGLAYPGVRTHGTLESVNGPKAGSRGLTSLADTFEHVIEELLDEDQKVRPNEENNKDADLYTSRVMLSSQVPLEPPLLFLLEEYKNYLDAANMSMRVRRHSDPARRGELSVCDSISEWVTAADKKTAVDMSGGTVTVLEKVPVSKGQLKQYFYETKCNPMGYTKEGCRGIDKRHWNSQCRTTQSYVRALTMDSKKRIGWRFIRIDTSCVCTLTIKRGR

Assays:
Murine cortical neurons = assay: Neural network integrity of cortical neurons damaged by glutamate (MAP-2 immunolabeling); assay type: cell-based; conditions: 48 hours after, FIG. 4
Description: (§1) Murine cortical neurons were cultured as described by Callizot et al., 2013. The cells were mechanically dissociated by three forced passages through the tip of a 10 mL pipette. The cells were then centrifuged at 515×g for 10 minutes at 4° C. The supernatant was removed and the pellet was taken up in a defined culture medium constituted by Neurobasal medium with a 2% solution of B27 supplement, 2 mmol/litre of L-glutamine, 2% of PS solution and 10 ng/ml of BDNF. The viable cells were counted in a Neubauer cytometer, using the trypan blue exclusion test. The cells were seeded in a density of 25000 per well in a 96-well plate pre-coated with poly-L-lysine and were cultured at 37° C. in a CO2 incubator (5%). The medium was changed every two days. The experiments were subsequently carried out on 96-well plates (n=6 culture wells per condition). In the 96 wells of each plate, only 60 were used. The wells in the first and last rows and columns were not used in order to avoid any edge effects and were filled with sterile water.
(§2) The compounds to be tested were dissolved in DMSO and the concentration was adjusted in order to ensure a concentration of DMSO in the culture medium of 0.1%. […]
(§3) For each condition, 30 images per well were automatically recorded using ImageXpress (Molecular Devices) at 20× magnification. […]
(§4) The data were expressed as a percentage of the control. […]

tau protein = assay: Hyperphosphorylation of tau protein (AT100) in cortical neurons damaged by glutamate; assay type: cell-based, Murine; conditions: % of the negative control (100%=value 0); glutamate 20 μM, 20 min; 48 hours after; SBE 1 μm, BDNF 50 ng/mL; FIG. 5
Description: as §1, §2, §3, §4

[1] = biological target: T1, Bovine alkaline phosphatase (AP) (Bos taurus, UniProt P19111); assay: AP-heat test (protection of alkaline phosphatase against heat denaturing, chaperone effect); assay type: biochemical; conditions: 55° C. for 1 hour; all test concentrations (20 μM, 10 μM, 5 μM, 2.5 μM, 1.25 μM); FIG. 2
T1 construct: purchased Sigma P0114
Excerpt: The aim of this study was to compare the protein protection capacities of the various components of an extract of carotenoids of the actinobacterium A. agilis separated by chromatography and HPLC. More specifically, we tested all the major fractions to assess their ability to protect the enzyme alkaline phosphatase: • against denaturing via their effect of protecting proteins from denaturing (AP-heat test) (chaperone effect) • against oxidation (APox test) (Protective effect against oxidative stress).
This test is derived from a modification of the APox test for measuring the protection potential of proteins not just against oxidative stress, but against denaturing (heat stress). In fact, under the effect of heat, proteins are denatured and enzymes lose their activity. […]
• Bovine alkaline phosphatase (AP) (Sigma P0114) • Liquid substrate of alkaline phosphatase (Sigma P7998) • Heating block • Flat-bottomed 96-well plate • Plate reader at 405 nm […]
Read OD at 405 nm for 20 min at 37° C.
The protective power of a “molecule X” against denaturing (PPX) is calculated by taking the ratio of the activity of alkaline phosphatase (PA) at 55° C. […]
The activity of the enzyme for each condition is calculated by taking the mean of the optical density values measured at 405 nm for the replicates, from which values the mean value of what are known as the “blank” wells (reagents alone) is subtracted, i.e.: […]

[2] = biological target: T1, Bovine alkaline phosphatase (AP); assay: APox test (protection of alkaline phosphatase against oxidative stress); assay type: biochemical; conditions: hydrogen peroxide/FeO4S, 15 min at 37° C.; all test concentrations (20 μM to 1.25 μM); FIG. 3
Excerpt: The aim of this study was to compare the protein protection capacities of the various components of an extract of carotenoids of the actinobacterium A. agilis separated by chromatography and HPLC. More specifically, we tested all the major fractions to assess their ability to protect the enzyme alkaline phosphatase: • against denaturing via their effect of protecting proteins from denaturing (AP-heat test) (chaperone effect) • against oxidation (APox test) (Protective effect against oxidative stress). This test is described in patent application FR 3002544 A1 and measures the ability of a substance to protect the enzyme alkaline phosphatase from oxidative stress. • Bovine alkaline phosphatase (AP) (Sigma P0114) • Liquid substrate for AP (Sigma P7998) • 30% hydrogen peroxide • FeO4S solution (30 mg in 1 mL H2O) • Flat-bottomed 96-well plate • Plate reader at 405 nm The Following were Deposited in Each Well: • 10 μL of AP diluted to 10^−5 in 10^−2M MgSO4. • 4 μL of test molecule, solvent (negative control) or H2O (positive control)+6 μL of H2O • 30 μL of a hydrogen peroxide solution (from a stock solution composed of 940 μL H2O+40 μL 30% H2O2+20 μL 10^−2 FeO4S) or 30 μL of H2O (positive control) • Allow to incubate for 15 min at 37° C. • Add 50 μL of liquid substrate. • Read OD at 405 nm for 20 min at 37° C. […]

T1 sequence (P19111 20-506 limits assumed): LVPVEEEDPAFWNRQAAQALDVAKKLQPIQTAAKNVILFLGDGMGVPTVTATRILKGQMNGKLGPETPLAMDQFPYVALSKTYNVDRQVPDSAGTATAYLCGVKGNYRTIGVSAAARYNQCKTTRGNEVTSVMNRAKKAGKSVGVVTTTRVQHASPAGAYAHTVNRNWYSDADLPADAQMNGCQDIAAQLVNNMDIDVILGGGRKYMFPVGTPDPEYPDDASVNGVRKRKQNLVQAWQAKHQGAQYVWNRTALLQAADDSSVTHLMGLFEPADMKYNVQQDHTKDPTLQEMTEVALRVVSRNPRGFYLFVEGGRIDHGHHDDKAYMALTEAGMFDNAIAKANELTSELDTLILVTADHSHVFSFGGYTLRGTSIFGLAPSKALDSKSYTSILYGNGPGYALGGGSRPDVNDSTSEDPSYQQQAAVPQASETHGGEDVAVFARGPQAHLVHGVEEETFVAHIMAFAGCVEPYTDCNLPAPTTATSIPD

| percentage of protection against oxidative stress (APOX test) [2] | Molecule | reduction in neural network density (Murine cortical neurons; glutamate poisoning alone (20 μM, 20 min)/vehicle) | hyperphosphorylation of tau protein (AT100 zone, tau/MAP-2 overlap) (tau protein) | percentage protection against heat (AP-heat test) [1] | total neural network (MAP-2 positive neural length) (Murine cortical neurons; percentage of control, glutamate 20 μM, 20 min, 1 hour pre-incubation, SBE 1 μm, BDNF 50 ng/mL) |
| --- | --- | --- | --- | --- | --- |
| – | N[C@@H](CCC(=O)O)C(=O)O [Glutamate, reference compound] | 60% | +193% | – | – |
| particularly pronounced | Diglycosylated bacterioruberin [BR-DiG] | – | – | protect the protein more effectively than the BR itself | – |
| – | Monoglycosylated bacterioruberin [BR-MonoG] | – | – | protect the protein more effectively than the BR itself | – |
| – | B1 | – | +121% | – | 85% |
